Results taken from US7507727B2, “Substituted quinobenzoxazine analogs and methods of using thereof” (Cylene Pharmaceuticals, Inc., priority 2003, dated 2009).
pIC50: −log10 of the molar value.

Target: c-Myc template DNA (c-myc quadruplex)
Experiment: Quadruplex binding / stop assay (Taq polymerase arrest, capillary electrophoresis)
Settings: read-out: S DATA; Table 1D, stop assay data

Row | pIC50 | Compound
1 | < 4.82 | C[C@H](O)CNC(=O)c1cn2c3c(c(N4CCC(N)C4)c(F)cc3c1=O)Oc1cc3ccccc3cc1-2 (some centres unmarked) [compound 1709]
2 | < 4.82 | NC1CCN(c2c(F)cc3c(=O)c(C(=O)NCCc4ccc(O)cc4)cn4c3c2Oc2cc3ccccc3cc2-4)C1 (centres unmarked) [compound 1707]
3 | 6.12 | CN1CCC(NC(=O)c2cn3c4c(c(N5CCC(N)C5)c(F)cc4c2=O)Oc2cc4ccccc4cc2-3)CC1 (centres unmarked) [compound 1717]
4 | 5.76 | CC(CNc1c(F)cc2c(=O)c(C(=O)NCCC3CCCN3C)cn3c2c1Oc1cc2ccccc2cc1-3)c1ccccc1 (centres unmarked) [compound 1662]
5 | 5.65 | CN1CCCC1CCNC(=O)c1cn2c3c(c(F)c(F)cc3c1=O)Oc1cc3ccccc3cc1-2 (centres unmarked) [compound 1738]
6 | 5.76 | CN1CCCC1CCNC(=O)c1cn2c3c(c(NCC(O)CO)c(F)cc3c1=O)Oc1cc3ccccc3cc1-2 (centres unmarked) [compound 1677]
7 | < 4.82 | COc1cccc(CCNC(=O)c2cn3c4c(c(N5CCC(N)C5)c(F)cc4c2=O)Oc2cc4ccccc4cc2-3)c1OC (centres unmarked) [compound 1702]
8 | 5.76 | O=C(NCCN1CCOCC1)c1cn2c3c(c(NCCN4CCCC4)ccc3c1=O)Oc1cc3ccccc3cc1-2 [compound 1521]
9 | < 4.82 | COc1ccc(CCNC(=O)c2cn3c4c(c(N5CCC(N)C5)c(F)cc4c2=O)Oc2cc4ccccc4cc2-3)cc1OC (centres unmarked) [compound 1705]
10 | 5.52 | O=C(NCCN1CCCC1)c1cn2c3c(c(NCC4CCCO4)c(F)cc3c1=O)Oc1cc3ccccc3cc1-2 (centres unmarked) [compound 1734]
11 | < 4.82 | CCN(CC)CCCC(C)NC(=O)c1cn2c3c(c(N4CC5CCCNC5C4)ccc3c1=O)Oc1ccccc1-2 (centres unmarked) [compound 1730]
12 | < 4.82 | CN(C)c1cccc(CNC(=O)c2cn3c4c(c(N5CCC(N)C5)c(F)cc4c2=O)Oc2cc4ccccc4cc2-3)c1 (centres unmarked) [compound 1714]
13 | < 4.82 | CCN(CC)CCCC(C)NC(=O)c1cn2c3c(c(N4CC5CCCNC5C4)ccc3c1=O)Oc1cc3ccccc3cc1-2 (centres unmarked) [compound 1733]

Second part, the compound before the results:

Row | Compound | pIC50
14 | COc1ccc2c(CCNc3c(F)cc4c(=O)c(C(=O)NCCC5CCCN5C)cn5c4c3Oc3cc4ccccc4cc3-5)c[nH]c2c1 (centres unmarked) [compound 1667] | 5.76
15 | O=C(NCCN1CCOCC1)c1cn2c3c(c(NCCN4CCOCC4)c(F)cc3c1=O)Oc1ccccc1-2 [compound 1605] | < 4.82
16 | O=C(NCCN1CCCC1)c1cn2c3c(c(N4CCN(Cc5ccco5)CC4)c(F)cc3c1=O)Oc1cc(Cl)ccc1-2 [compound 1829] | 5.00
17 | O=C(NCCN1CCOCC1)c1cn2c3c(c(N4CCC(c5cnccn5)C4)c(F)cc3c1=O)Oc1ccc(Cl)cc1-2 (centres unmarked) [compound 1789] | < 4.82
18 | CN(C)CCCCNC(=O)c1cn2c3c(c(NCCN4CCOCC4)c(F)cc3c1=O)Oc1ccccc1-2 [compound 1610] | < 4.82
19 | CN1CCN(CCCNc2c(F)cc3c(=O)c(C(=O)NCCN4CCOCC4)cn4c3c2Oc2ccccc2-4)CC1 [compound 1573] | < 4.82
20 | CN1CCN(CCCNc2c(F)cc3c(=O)c(C(=O)N4CCN(C)CC4)cn4c3c2Oc2ccccc2-4)CC1 [compound 1582] | < 4.82
21 | CC(C)N1CCN(c2c(F)cc3c(=O)c(C(=O)N4CCC(NC(=O)OC(C)(C)C)C4)cn4c3c2Oc2ccccc2-4)CC1 (centres unmarked) [compound 1564] | < 4.82
22 | CC(C)(C)OC(=O)NC1CCN(c2c(F)cc3c(=O)c(C(=O)NCCCN4CCOCC4)cn4c3c2Oc2ccccc2-4)C1 (centres unmarked) [compound 1583] | < 4.82
23 | CN(C)CCCCNC(=O)c1cn2c3c(c(N4CCC(N)C4)c(F)cc3c1=O)Oc1ccccc1-2 (centres unmarked) [compound 1624] | 6.12
24 | CN(C)CC(C)(C)CNC(=O)c1cn2c3c(c(N4CCC(NC(=O)OC(C)(C)C)C4)c(F)cc3c1=O)Oc1ccccc1-2 (centres unmarked) [compound 1590] | < 4.82

Same assay, conditions: read-out: Stop Data c-Myc μM; concentration at which 50% of the DNA was arrested (arrested:full-length 1:1)

Row | IC50 | Compound
25 | 0.75 µM | CN1CCCC1CCNC(=O)c1cn2c3c(c(N(C)C4CCNC4)c(F)cc3c1=O)Oc1cc3ccccc3cc1-2 (centres unmarked) [compound 439]
26 | 0.75 µM | CN1CCCC1CCNC(=O)c1cn2c3c(c(NCCCCN4CCCC4)c(F)cc3c1=O)Oc1cc3ccccc3cc1-2 (centres unmarked) [compound 440]
27 | 2.5 µM | CN(C)CCCCNC(=O)c1cn2c3c(c(N4CC[C@@H](NC(=O)OC(C)(C)C)C4)c(F)cc3c1=O)Oc1cc3ccccc3cc1-2 [compound 66]
28 | 1.75 µM | CN1CCN(CCCNc2ccc3c(=O)c(C(=O)NCCN4CCOCC4)cn4c3c2Oc2cc3ccccc3cc2-4)CC1 [compound 279]
29 | 1 µM | CN(C)CC(C)(C)CNC(=O)c1cn2c3c(c(N4CCC(N)C4)c(F)cc3c1=O)Oc1cc3ccccc3cc1-2 (centres unmarked) [compound 329]
30 | 1.75 µM | CN(C)CCCCNC(=O)c1cn2c3c(c(NCCC4CCCN4C)c(F)cc3c1=O)Oc1cc3ccccc3cc1-2 (centres unmarked) [compound 125]
31 | 1.75 µM | CN1CCCC1CCNC(=O)c1cn2c3c(c(NCCCO)c(F)cc3c1=O)Oc1cc3ccccc3cc1-2 (centres unmarked) [compound 293]
32 | 0.75 µM | O=C(O)c1cn2c3c(c(N4CC5CCCNC5C4)c(F)cc3c1=O)Oc1cc3ccccc3cc1-2 (centres unmarked) [compound 23]
33 | 1.75 µM | CN1CCCC1CCNC(=O)c1cn2c3c(c(NCCCCO)c(F)cc3c1=O)Oc1cc3ccccc3cc1-2 (centres unmarked) [compound 284]
34 | 1.75 µM | CN1CCCC1CCNc1ccc2c(=O)c(C(=O)NC3CC(C)(C)NC(C)(C)C3)cn3c2c1Oc1cc2ccccc2cc1-3 (centres unmarked) [compound 270]
35 | 1.75 µM | Nc1ccc(CCNC(=O)c2cn3c4c(c(N5CCC(N)C5)c(F)cc4c2=O)Oc2cc4ccccc4cc2-3)cc1 (centres unmarked) [compound 193]
36 | 0.75 µM | CN1CCCC1CCNc1ccc2c(=O)c(C(=O)NCCN3CCCC3)cn3c2c1Oc1cc2ccccc2cc1-3 (centres unmarked) [compound 448]
37 | 2.5 µM | CN(C)CCCCNC(=O)c1cn2c3c(c(NCCCN4CCOCC4)c(F)cc3c1=O)Oc1cc3ccccc3cc1-2 [compound 52]

The next lines start with the compound.

Row | Compound | IC50
38 | CC(C)(C)OC(=O)N[C@H]1CCN(c2c(F)cc3c(=O)c(C(=O)NCCCN4CCOCC4)cn4c5cc6c(cc5oc2c34)c(=O)c2ccccc26)C1 [compound 204] | 1.75 µM
39 | CN(C)CCNC(=O)c1cn2c3cc4c(=O)c5ccccc5c(=O)c4cc3oc3c(N4CCN(C)CC4)c(F)cc(c1=O)c32 [compound 353] | 0.9 µM
40 | CC(C)(C)OC(=O)NC1CCN(c2c(F)c(N)c3c(=O)c(C(=O)NCCN4CCOCC4)cn4c3c2Oc2cc3ccccc3cc2-4)C1 (centres unmarked) [compound 229] | 1.75 µM
41 | O=C(NCCCN1CCOCC1)c1cn2c3c(c(NCCN4CCOCC4)c(F)cc3c1=O)Oc1cc3ccccc3cc1-2 [compound 53] | 2.5 µM
42 | N=C(N)NCCCNC(=O)c1cn2c3c(c(NCCN4CCCC4)c(F)cc3c1=O)Oc1cc3ccccc3cc1-2 [compound 333] | 1 µM
43 | O=C(NCCN1CCCC1)c1cn2c3c(c(NCCN4CCCC4)c(F)cc3c1=O)Oc1cc3ccccc3cc1-2 [compound 74] | 2.5 µM
44 | CC(=O)N[C@@H]1CCN(c2c(F)cc3c(=O)c(C(=O)NCCC4CCCN4C)cn4c3c2Oc2cc3c(cc2-4)oc2ccccc23)C1 (some centres unmarked) [compound 406] | 0.75 µM
45 | N[C@@H]1CCN(c2c(F)cc3c(=O)c(C(=O)NCCCn4ccnc4)cn4c3c2Oc2c-4ccc3ccccc23)C1 [compound 157] | 1.75 µM
46 | CC(C)(C)OC(=O)NC1CCN(c2c(F)c(N)c3c(=O)c(C(=O)O)cn4c3c2Oc2cc3ccccc3cc2-4)C1 (centres unmarked) [compound 15] | 1.75 µM
47 | CN(C)CCCCNC(=O)c1cn2c3c(c(NCCCCN(C)C)c(F)cc3c1=O)Oc1c-2ccc2ccccc12 [compound 470] | 0.64 µM
48 | Nc1c(F)c(NCCCN2CCOCC2)c2c3c1c(=O)c(C(=O)NCCCN1CCOCC1)cn3-c1cc3ccccc3cc1O2 [compound 218] | 1.75 µM
49 | CN1CCN(CCCNC(=O)c2cn3c4c(c(NC(=O)CCN5CCCC5)c(F)cc4c2=O)Oc2cc4ccccc4cc2-3)CC1 [compound 88] | 2.5 µM
50 | CN1CCN(CCCNC(=O)c2cn3c4cc5c(=O)c6ccccc6c(=O)c5cc4oc4c(N5CCC(NC(=O)OC(C)(C)C)C5)c(F)cc(c2=O)c43)CC1 (centres unmarked) [compound 169] | 1.75 µM
51 | CCOC(=O)N1CCC(Nc2c(F)cc3c(=O)c(C(=O)NCCC4CCCN4C)cn4c3c2Oc2cc3ccccc3cc2-4)CC1 (centres unmarked) [compound 256] | 1.75 µM
52 | CN(CCc1ccccn1)C(=O)c1ccc2c(c1)Oc1c(NCCCn3ccnc3)c(F)cc3c(=O)c(C(=O)N(C)CCc4ccccn4)cn-2c13 [compound 39] | 2.5 µM
53 | CN1CCCC1CCNc1c(F)cc2c(=O)c(C(=O)NCCN3CCOCC3)cn3c2c1Oc1cc2c(cc1-3)oc1ccccc12 (centres unmarked) [compound 158] | 1.75 µM
54 | CN1CCN(CCCNC(=O)c2cn3c4cc5c(=O)c6ccccc6c(=O)c5cc4oc4c(NCCC5CCCN5C)c(F)cc(c2=O)c43)CC1 (centres unmarked) [compound 165] | 1.75 µM
55 | CN1CCCC1CCNC(=O)c1cn2c3c(c(N4CCC(NC(=O)OC(C)(C)C)C4)c(F)c(N)c3c1=O)Oc1cc3ccccc3cc1-2 (centres unmarked) [compound 225] | 1.75 µM
56 | O=C(NCCCN1CCOCC1)c1cn2c3cc4c(cc3oc3c(NCCN5CCOCC5)c(F)cc(c1=O)c32)c(=O)c1ccccc14 [compound 205] | 1.75 µM
57 | CC1CCCCN1CCCNc1c(F)cc2c(=O)c(C(=O)N3CCOCC3)cn3c2c1Oc1cc2ccccc2cc1-3 (centres unmarked) [compound 393] | 0.75 µM
58 | N[C@@H]1CCN(c2c(F)cc3c(=O)c(C(=O)N4CCOCC4)cn4c3c2Oc2c-4ccc3ccccc23)C1 [compound 79] | 2.5 µM
59 | CN1CCN(CCCNC(=O)c2cn3c4c(c(N5CC[C@@H](NC(=O)CCN6CCN(C)CC6)C5)c(F)cc4c2=O)Oc2cc4c(cc2-3)oc2ccccc24)CC1 [compound 173] | 1.75 µM
60 | CN(C)CCCCNC(=O)c1cn2c3c(c(NCCCN4CCOCC4)c(F)cc3c1=O)Oc1cc3c(cc1-2)oc1ccccc13 [compound 145] | 1.75 µM
61 | CN1CCCC1CCNc1c(F)cc2c(=O)c(C(=O)N3CC[C@@H](N)C3)cn3c2c1Oc1c-3ccc2ccccc12 (some centres unmarked) [compound 85] | 2.5 µM
62 | CN(C)CCCCNC(=O)c1cn2c3c(c(NCCCN4CCOCC4)c(F)c(N)c3c1=O)Oc1cc3ccccc3cc1-2 [compound 220] | 1.75 µM
63 | O=C(O)c1cn2c3c(c(NCCCN4CCOCC4)c(F)cc3c1=O)Oc1cc3c(cc1-2)-c1ccccc1C3 [compound 6] | 1.75 µM
64 | N[C@@H]1CCN(c2c(F)cc3c(=O)c(C(=O)NCCCN4CCOCC4)cn4c3c2Oc2c-4ccc3ccccc23)C1 [compound 103] | 1.8 µM
65 | O=C(c1cn2c3c(c(NCCCNC4CCCCC4)c(F)cc3c1=O)Oc1cc3ccccc3cc1-2)N1CCOCC1 [compound 117] | 1.75 µM
